How the values were obtained:
Assay type in all cases: cell-based
WEE1 = target: T1, WEE1 (Homo sapiens, UniProt P30291+Q96SW2); test: Western-blot assay, substrate protein degradation in hPBMCs: WEE1; conditions: for WEE1 substrate protein remaining %: compounds at 50 nM and 500 nM, 24 hours; for substrate protein remaining % WEE1: 24 hours of compound treatment, 50 nM and 500 nM
T1 construct: effects of the compounds of the present disclosure on the expression of target proteins in cells; endogenous in cells; host or cells: human PBMCs (hPBMCs)

IKZF1 = target: T2, IKZF1 (Homo sapiens, UniProt Q13422+Q96SW2); test: Western-blot assay, substrate protein degradation in hPBMCs: IKZF1; conditions: for IKZF1 substrate protein remaining %: compounds at 50 nM and 500 nM, 24 hours; for substrate protein remaining % IKZF1: 24 hours of compound treatment, 50 nM and 500 nM
T2 construct: effects of the compounds of the present disclosure on the expression of target proteins in cells; endogenous in cells; host or cells: human PBMCs (hPBMCs)

IKZF2 = target: T3, IKZF2 (Homo sapiens, UniProt Q96SW2+Q9UKS7); test: Western-blot assay, substrate protein degradation in hPBMCs: IKZF2; conditions: for IKZF2 substrate protein remaining %: compounds at 50 nM and 500 nM, 24 hours; for substrate protein remaining % IKZF2: 24 hours of compound treatment, 50 nM and 500 nM
T3 construct: effects of the compounds of the present disclosure on the expression of target proteins in cells; endogenous in cells; host or cells: human PBMCs (hPBMCs)

IKZF3 = target: T4, IKZF3 (Homo sapiens, UniProt Q96SW2+Q9UKT9); test: Western-blot assay, substrate protein degradation in hPBMCs: IKZF3; conditions: for IKZF3 substrate protein remaining %: compounds at 50 nM and 500 nM, 24 hours; for substrate protein remaining % IKZF3: 24 hours of compound treatment, 50 nM and 500 nM
T4 construct: effects of the compounds of the present disclosure on the expression of target proteins in cells; endogenous in cells; host or cells: human PBMCs (hPBMCs)

CK1α = target: T5, CK1α (Homo sapiens, UniProt P48729+Q96SW2); test: Western-blot assay, substrate protein degradation in hPBMCs: CK1α; conditions: for CK1α substrate protein remaining %: compounds at 50 nM and 500 nM, 24 hours; for substrate protein remaining % CK1α: 24 hours of compound treatment, 50 nM and 500 nM
T5 construct: effects of the compounds of the present disclosure on the expression of target proteins in cells; endogenous in cells; host or cells: human PBMCs (hPBMCs)

GSPT1 = target: T6, GSPT1 (Homo sapiens, UniProt P15170+Q96SW2); test: Western-blot assay, substrate protein degradation in hPBMCs: GSPT1; conditions: for GSPT1 substrate protein remaining %: compounds at 50 nM and 500 nM, 24 hours; for substrate protein remaining % GSPT1: 24 hours of compound treatment, 50 nM and 500 nM
T6 construct: effects of the compounds of the present disclosure on the expression of target proteins in cells; endogenous in cells; host or cells: human PBMCs (hPBMCs)
T6 sequence (P15170 whole entry): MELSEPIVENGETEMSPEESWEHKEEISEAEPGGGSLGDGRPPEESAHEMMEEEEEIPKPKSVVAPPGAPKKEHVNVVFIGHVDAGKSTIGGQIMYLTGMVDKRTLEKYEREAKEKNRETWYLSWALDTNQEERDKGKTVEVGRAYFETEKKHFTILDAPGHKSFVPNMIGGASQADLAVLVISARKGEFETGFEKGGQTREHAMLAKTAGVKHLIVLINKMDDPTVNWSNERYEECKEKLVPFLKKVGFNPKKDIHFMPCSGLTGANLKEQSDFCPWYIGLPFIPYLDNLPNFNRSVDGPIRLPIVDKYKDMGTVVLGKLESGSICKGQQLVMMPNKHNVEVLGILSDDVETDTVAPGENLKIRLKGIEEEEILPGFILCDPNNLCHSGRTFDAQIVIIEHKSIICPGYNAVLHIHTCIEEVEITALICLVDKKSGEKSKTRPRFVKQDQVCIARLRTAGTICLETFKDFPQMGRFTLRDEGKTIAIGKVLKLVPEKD
T6 sequence (Q96SW2 whole entry): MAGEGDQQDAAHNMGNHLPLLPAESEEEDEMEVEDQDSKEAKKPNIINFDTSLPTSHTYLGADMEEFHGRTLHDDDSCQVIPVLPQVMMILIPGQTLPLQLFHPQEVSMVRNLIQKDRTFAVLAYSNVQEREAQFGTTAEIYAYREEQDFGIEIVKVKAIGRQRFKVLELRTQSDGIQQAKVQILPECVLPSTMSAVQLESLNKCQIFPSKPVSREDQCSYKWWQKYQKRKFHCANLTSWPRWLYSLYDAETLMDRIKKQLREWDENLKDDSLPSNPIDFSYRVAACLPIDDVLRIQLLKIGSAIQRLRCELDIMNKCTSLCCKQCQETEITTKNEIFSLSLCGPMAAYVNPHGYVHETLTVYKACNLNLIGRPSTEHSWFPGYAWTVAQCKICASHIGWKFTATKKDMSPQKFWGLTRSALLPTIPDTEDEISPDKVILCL
T6 sequence (Q16531 whole entry partner): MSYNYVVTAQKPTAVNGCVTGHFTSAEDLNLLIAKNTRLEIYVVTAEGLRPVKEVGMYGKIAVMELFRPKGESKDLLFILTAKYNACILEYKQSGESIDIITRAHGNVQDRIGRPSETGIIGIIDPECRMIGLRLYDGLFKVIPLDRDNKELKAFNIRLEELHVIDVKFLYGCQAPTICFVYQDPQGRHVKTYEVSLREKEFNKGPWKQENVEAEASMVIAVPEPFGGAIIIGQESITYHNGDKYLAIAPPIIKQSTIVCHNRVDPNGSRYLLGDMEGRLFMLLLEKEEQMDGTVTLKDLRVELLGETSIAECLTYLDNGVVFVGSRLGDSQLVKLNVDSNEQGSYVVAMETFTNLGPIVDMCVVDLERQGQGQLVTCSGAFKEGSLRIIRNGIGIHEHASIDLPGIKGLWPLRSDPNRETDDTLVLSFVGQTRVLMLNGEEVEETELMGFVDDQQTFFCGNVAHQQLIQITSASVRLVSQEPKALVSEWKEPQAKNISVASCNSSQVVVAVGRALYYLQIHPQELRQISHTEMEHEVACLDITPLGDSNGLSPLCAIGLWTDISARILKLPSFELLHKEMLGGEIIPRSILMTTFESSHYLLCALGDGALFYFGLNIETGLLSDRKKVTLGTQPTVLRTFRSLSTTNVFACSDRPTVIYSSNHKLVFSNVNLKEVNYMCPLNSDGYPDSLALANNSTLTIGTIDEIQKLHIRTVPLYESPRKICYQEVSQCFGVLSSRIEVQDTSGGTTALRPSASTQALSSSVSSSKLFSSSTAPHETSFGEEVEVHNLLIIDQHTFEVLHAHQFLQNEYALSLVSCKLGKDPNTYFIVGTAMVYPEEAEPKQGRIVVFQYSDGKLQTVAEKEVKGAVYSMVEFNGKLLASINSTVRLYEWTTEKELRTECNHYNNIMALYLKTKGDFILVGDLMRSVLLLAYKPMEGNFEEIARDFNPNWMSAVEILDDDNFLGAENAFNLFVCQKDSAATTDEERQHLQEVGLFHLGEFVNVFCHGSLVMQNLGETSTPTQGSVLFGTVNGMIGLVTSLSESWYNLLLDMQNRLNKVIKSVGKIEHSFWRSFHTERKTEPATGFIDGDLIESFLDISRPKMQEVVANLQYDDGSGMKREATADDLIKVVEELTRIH

T2 sequence (Q13422 whole entry): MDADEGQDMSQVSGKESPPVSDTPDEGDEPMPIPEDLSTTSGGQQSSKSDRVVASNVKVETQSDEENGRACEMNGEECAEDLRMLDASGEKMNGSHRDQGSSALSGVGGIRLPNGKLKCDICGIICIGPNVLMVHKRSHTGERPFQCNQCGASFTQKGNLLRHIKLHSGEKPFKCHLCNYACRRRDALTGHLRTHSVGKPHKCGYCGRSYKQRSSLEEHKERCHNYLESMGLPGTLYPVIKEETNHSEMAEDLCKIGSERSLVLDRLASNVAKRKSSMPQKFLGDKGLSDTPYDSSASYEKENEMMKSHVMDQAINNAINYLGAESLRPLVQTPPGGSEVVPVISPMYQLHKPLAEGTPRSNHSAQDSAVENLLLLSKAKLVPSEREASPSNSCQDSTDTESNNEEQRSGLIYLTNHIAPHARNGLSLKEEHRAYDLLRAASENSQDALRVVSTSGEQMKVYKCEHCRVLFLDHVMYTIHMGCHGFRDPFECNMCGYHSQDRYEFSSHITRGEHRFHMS
T2 sequence (Q96SW2 whole entry): as the sequence (Q96SW2 whole entry) above
T2 sequence (Q16531 whole entry partner): as the sequence (Q16531 whole entry partner) above
T4 sequence (Q9UKT9 whole entry): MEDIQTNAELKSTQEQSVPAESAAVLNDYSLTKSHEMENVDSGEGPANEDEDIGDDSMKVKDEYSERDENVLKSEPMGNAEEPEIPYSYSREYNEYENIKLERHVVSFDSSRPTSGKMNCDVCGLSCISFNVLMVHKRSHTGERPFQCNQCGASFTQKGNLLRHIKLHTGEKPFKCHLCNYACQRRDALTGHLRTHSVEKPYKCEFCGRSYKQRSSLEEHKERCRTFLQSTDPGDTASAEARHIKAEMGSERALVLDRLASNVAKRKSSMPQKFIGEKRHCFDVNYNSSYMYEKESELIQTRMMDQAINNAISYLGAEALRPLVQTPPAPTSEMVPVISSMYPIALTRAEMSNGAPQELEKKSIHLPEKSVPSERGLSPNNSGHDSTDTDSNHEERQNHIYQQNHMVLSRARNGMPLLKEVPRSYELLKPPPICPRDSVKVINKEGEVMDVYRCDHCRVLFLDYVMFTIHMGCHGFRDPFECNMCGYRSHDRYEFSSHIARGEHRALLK
T4 sequence (Q96SW2 whole entry): as the sequence (Q96SW2 whole entry) above
T4 sequence (Q16531 whole entry partner): as the sequence (Q16531 whole entry partner) above
T5 sequence (P48729 whole entry): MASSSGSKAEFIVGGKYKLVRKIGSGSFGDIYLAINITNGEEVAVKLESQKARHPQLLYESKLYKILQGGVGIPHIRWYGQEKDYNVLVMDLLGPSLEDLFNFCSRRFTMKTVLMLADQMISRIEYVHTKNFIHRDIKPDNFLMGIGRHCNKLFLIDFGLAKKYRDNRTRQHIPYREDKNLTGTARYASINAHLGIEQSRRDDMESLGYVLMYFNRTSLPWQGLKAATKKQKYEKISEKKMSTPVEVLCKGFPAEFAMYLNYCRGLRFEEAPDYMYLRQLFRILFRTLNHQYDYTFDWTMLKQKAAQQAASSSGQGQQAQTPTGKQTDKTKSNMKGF
T5 sequence (Q96SW2 whole entry): as the sequence (Q96SW2 whole entry) above
T5 sequence (Q16531 whole entry partner): as the sequence (Q16531 whole entry partner) above
T3 sequence (Q9UKS7 whole entry): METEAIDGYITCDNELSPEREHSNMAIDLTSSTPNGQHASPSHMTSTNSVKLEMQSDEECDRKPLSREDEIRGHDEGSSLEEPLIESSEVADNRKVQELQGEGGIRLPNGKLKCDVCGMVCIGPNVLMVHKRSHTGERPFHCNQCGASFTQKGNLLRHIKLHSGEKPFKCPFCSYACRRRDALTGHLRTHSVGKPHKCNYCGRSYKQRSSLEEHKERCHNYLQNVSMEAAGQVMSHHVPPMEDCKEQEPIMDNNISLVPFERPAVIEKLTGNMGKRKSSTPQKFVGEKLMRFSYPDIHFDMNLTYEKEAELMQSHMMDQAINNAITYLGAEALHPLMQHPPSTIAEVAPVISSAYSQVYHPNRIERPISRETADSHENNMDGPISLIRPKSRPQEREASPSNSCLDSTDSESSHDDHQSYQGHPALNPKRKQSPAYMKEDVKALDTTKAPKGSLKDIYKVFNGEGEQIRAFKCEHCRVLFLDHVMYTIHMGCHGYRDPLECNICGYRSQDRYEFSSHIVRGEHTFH
T3 sequence (Q96SW2 whole entry): as the sequence (Q96SW2 whole entry) above
T3 sequence (Q16531 whole entry partner): as the sequence (Q16531 whole entry partner) above

SMILES | WEE1 substrate protein remaining % (WEE1) | IKZF1 substrate protein remaining % (IKZF1) | IKZF2 substrate protein remaining % (IKZF2) | IKZF3 substrate protein remaining % (IKZF3) | CK1α substrate protein remaining % (CK1α) | GSPT1 substrate protein remaining % (GSPT1) | substrate protein remaining % WEE1 (WEE1) | substrate protein remaining % IKZF1 (IKZF1) | substrate protein remaining % IKZF2 (IKZF2) | substrate protein remaining % IKZF3 (IKZF3) | substrate protein remaining % CK1α (CK1α) | substrate protein remaining % GSPT1 (GSPT1)
O=C1CCN(N2C(=O)c3ccc(CN4CCN(c5cccc(F)c5)CC4)cc3C2=O)C(=O)N1 [GT-06724, 2-(2,4-dioxotetrahydropyrimidin-1(2H)-yl)-5-((4-(3-fluorophenyl)piperazin-1-yl)methyl)isoindoline-1,3-dione] | A ("A" is defined as 0% ≤ substrate protein remaining % ≤ 80%) | A ("A" is defined as 0% ≤ substrate protein remaining % ≤ 80%) | B ("B" is defined as 80%< substrate protein remaining %≤ 100%) | B ("B" is defined as 80%< substrate protein remaining %≤ 100%) | B ("B" is defined as 80%< substrate protein remaining %≤ 100%) | B ("B" is defined as 80%< substrate protein remaining %≤ 100%) | – | – | – | – | – | –
O=C1CCN(N2C(=O)c3ccc(CN4CCC(c5ccoc5)CC4)cc3C2=O)C(=O)N1 [GT-07422, 2-(2,4-dioxotetrahydropyrimidin-1(2H)-yl)-5-((4-(furan-3-yl)piperidin-1-yl)methyl)isoindoline-1,3-dione] | – | – | – | – | – | – | B (80%< substrate protein remaining %≤ 100%) | B (80%< substrate protein remaining %≤ 100%) | B (80%< substrate protein remaining %≤ 100%) | B (80%< substrate protein remaining %≤ 100%) | A (0% ≤ substrate protein remaining % ≤ 80%) | A (0% ≤ substrate protein remaining % ≤ 80%)
Cc1ccsc1N1CCN(Cc2ccc3c(c2)CN(N2CCC(=O)NC2=O)C3=O)CC1 [GT-05084, 1-(5-((4-(3-methylthiophen-2-yl)piperazin-1-yl)methyl)-1-oxoisoindolin-2-yl)dihydropyrimidine-2,4(1H,3H)-dione] | B ("B" is defined as 80%< substrate protein remaining %≤ 100%) | B ("B" is defined as 80%< substrate protein remaining %≤ 100%) | A ("A" is defined as 0% ≤ substrate protein remaining % ≤ 80%) | B ("B" is defined as 80%< substrate protein remaining %≤ 100%) | B ("B" is defined as 80%< substrate protein remaining %≤ 100%) | B ("B" is defined as 80%< substrate protein remaining %≤ 100%) | – | – | – | – | – | –
O=C1CCN(N2Cc3cc(CN4CC5CCC4CN5c4cccc(Cl)c4Cl)ccc3C2=O)C(=O)N1 (stereo not drawn) [GT-07428, 1-(5-((5-(2,3-dichlorophenyl)-2,5-diazabicyclo[2.2.2]octan-2-yl)methyl)-1-oxoisoindolin-2-yl)dihydropyrimidine-2,4(1H,3H)-dione] | – | – | – | – | – | – | B (80%< substrate protein remaining %≤ 100%) | A (0% ≤ substrate protein remaining % ≤ 80%) | B (80%< substrate protein remaining %≤ 100%) | B (80%< substrate protein remaining %≤ 100%) | A (0% ≤ substrate protein remaining % ≤ 80%) | A (0% ≤ substrate protein remaining % ≤ 80%)
O=C1CCN(N2C(=O)c3ccc(CN4CCC(c5c[nH]c6ncccc56)CC4)cc3C2=O)C(=O)N1 [GT-07582, 5-((4-(1H-pyrrolo[2,3-b]pyridin-3-yl)piperidin-1-yl)methyl)-2-(2,4-dioxotetrahydropyrimidin-1(2H)-yl)isoindoline-1,3-dione] | – | – | – | – | – | – | A (0% ≤ substrate protein remaining % ≤ 80%) | A (0% ≤ substrate protein remaining % ≤ 80%) | A (0% ≤ substrate protein remaining % ≤ 80%) | B (80%< substrate protein remaining %≤ 100%) | B (80%< substrate protein remaining %≤ 100%) | A (0% ≤ substrate protein remaining % ≤ 80%)
O=C1CCN(N2C(=O)c3ccc(CN4CCN(c5c(Cl)cncc5Cl)CC4)cc3C2=O)C(=O)N1 [GT-07038, 5-((4-(3,5-dichloropyridin-4-yl)piperazin-1-yl)methyl)-2-(2,4-dioxotetrahydropyrimidin-1(2H)-yl)isoindoline-1,3-dione] | A ("A" is defined as 0% ≤ substrate protein remaining % ≤ 80%) | A ("A" is defined as 0% ≤ substrate protein remaining % ≤ 80%) | A ("A" is defined as 0% ≤ substrate protein remaining % ≤ 80%) | A ("A" is defined as 0% ≤ substrate protein remaining % ≤ 80%) | A ("A" is defined as 0% ≤ substrate protein remaining % ≤ 80%) | A ("A" is defined as 0% ≤ substrate protein remaining % ≤ 80%) | – | – | – | – | – | –
O=C1CCN(N2Cc3cc(CN4CCC(c5noc6cc(F)ccc56)CC4)ccc3C2=O)C(=O)N1 [GT-04864, 1-(5-((4-(6-fluorobenzo[d]isoxazol-3-yl)piperidin-1-yl)methyl)-1-oxoisoindolin-2-yl)dihydropyrimidine-2,4(1H,3H)-dione] | B ("B" is defined as 80%< substrate protein remaining %≤ 100%) | A ("A" is defined as 0% ≤ substrate protein remaining % ≤ 80%) | B ("B" is defined as 80%< substrate protein remaining %≤ 100%) | B ("B" is defined as 80%< substrate protein remaining %≤ 100%) | B ("B" is defined as 80%< substrate protein remaining %≤ 100%) | A ("A" is defined as 0% ≤ substrate protein remaining % ≤ 80%) | – | – | – | – | – | –
O=C1CCN(N2C(=O)c3ccc(CN4CCC(=C5CCOc6cc(F)ccc65)CC4)cc3C2=O)C(=O)N1 [GT-07685, 2-(2,4-dioxotetrahydropyrimidin-1(2H)-yl)-5-((4-(7-fluorochroman-4-ylidene)piperidin-1-yl)methyl)isoindoline-1,3-dione] | – | – | – | – | – | – | B (80%< substrate protein remaining %≤ 100%) | B (80%< substrate protein remaining %≤ 100%) | B (80%< substrate protein remaining %≤ 100%) | B (80%< substrate protein remaining %≤ 100%) | B (80%< substrate protein remaining %≤ 100%) | A (0% ≤ substrate protein remaining % ≤ 80%)
